Test results: US8940310B2, “Methods of treatment using TLR7 and/or TLR9 inhibitors” (Dynavax Technologies Corporation, priority 2010, dated 2015)
[I] = hypoxanthine (inosine)

Legend:
TLR9 = molecular target: T1, TLR9 (Homo sapiens, UniProt Q9NR96); assay: Human PDC stimulated with HSV-1 (TLR9 ligand), IFN-α; type: cell-based; conditions: TLR9L HSV
T1 construct: the primary human PDCs were thus stimulated with HSV-1 (4 MOI) or influenza (2 MOI); endogenous in cells; host or cells: primary human plasmacytoid dendritic cells from blood donors
T1 sequence (Q9NR96 26-1032): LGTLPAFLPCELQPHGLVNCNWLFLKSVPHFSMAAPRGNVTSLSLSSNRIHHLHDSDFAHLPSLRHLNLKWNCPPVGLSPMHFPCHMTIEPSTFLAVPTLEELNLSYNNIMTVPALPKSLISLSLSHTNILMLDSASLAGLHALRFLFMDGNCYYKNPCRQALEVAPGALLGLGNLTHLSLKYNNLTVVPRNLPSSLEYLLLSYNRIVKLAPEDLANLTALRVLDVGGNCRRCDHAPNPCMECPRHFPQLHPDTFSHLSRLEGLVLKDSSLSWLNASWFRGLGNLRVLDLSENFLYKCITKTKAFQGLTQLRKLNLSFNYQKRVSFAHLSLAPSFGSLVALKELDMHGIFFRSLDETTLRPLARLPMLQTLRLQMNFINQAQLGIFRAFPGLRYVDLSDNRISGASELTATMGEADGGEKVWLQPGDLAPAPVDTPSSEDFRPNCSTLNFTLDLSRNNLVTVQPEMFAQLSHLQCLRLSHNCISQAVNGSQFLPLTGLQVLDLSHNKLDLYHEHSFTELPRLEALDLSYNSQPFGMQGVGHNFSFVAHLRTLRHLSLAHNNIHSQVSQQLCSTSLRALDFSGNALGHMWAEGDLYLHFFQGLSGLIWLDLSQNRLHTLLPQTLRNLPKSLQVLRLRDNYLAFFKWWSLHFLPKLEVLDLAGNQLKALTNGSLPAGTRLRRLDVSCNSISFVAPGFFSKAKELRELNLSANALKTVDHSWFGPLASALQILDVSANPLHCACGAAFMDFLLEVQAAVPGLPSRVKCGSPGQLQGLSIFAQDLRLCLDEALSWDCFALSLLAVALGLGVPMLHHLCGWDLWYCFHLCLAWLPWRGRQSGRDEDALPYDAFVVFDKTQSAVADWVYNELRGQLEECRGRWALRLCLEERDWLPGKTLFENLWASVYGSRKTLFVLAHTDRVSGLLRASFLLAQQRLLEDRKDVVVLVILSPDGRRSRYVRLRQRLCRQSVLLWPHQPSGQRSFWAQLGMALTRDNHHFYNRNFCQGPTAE
Description: Human PDCs infected with herpes simplex virus type 1 (HSV-1 KOS strain) respond by producing IFN-α and this response is dependent on TLR-9 signaling. Human PDCs infected with influenza virus (FLU H1N1 strain, A/PR/8/34 from a patient in Puerto Rico 1934; See ATCC catalog VR-95) also respond by producing IFN-α, however, this response is dependent on TLR-7 signaling and independent of TLR-9. The effect of IRPs on innate immune response cytokine production by infected cells was examined. In a dose-dependent manner, the primary human PDCs were thus stimulated with HSV-1 (4 MOI) or influenza (2 MOI), either alone or in the presence of the tested IRPs. At 24 hours, supernatants were collected and cytokine levels, IFN-alpha, were measured by immunoassay.
Human PDCs from 16-18 donors were purified and infected with influenza virus (strain PR/8) or HSV-1. HSV was used at 4 MOI, while the influenza virus was used at 2 MOI. The amount of IFN-α produced by the cells was measured and compared to the amount of virus used for infection.
To further investigate the effectiveness of IRPs on TLR7 and TLR9 activation, various IRPs or control samples were assayed for immunoregulatory activity on human PDCs as described in Example 8.

TLR7 and TLR9 = assay: Type I IFN-regulated genes in spleens of lupus-prone mice (Taqman); type: in vivo, mouse; conditions: (NZBxNZW)F1 and TLR7.Tg.6, IRS 100 μg s.c. every 3 days for 10 days
Method: (A) (NZBxNZW)F1 mice were treated as described in FIG. 16 but when mice received IRS, different doses of GC were used (in mg per mouse here) (B) (NZBxNZW)F1 and (C) TLR7.Tg.6 mice were left untreated or treated with IRS (100 μg/mice s.c) every 3 days for 10 days and spleens were harvested 18 hr after the last IRS injection. RNA was prepared from the spleens of the animals and the levels of type I IFN-regulated genes were measured by quantitative analysis (Taqman). Averages±standard error of the mean for n=6-10 mice per group.
PCR reactions were performed as described previously (Barrat et al., 2005). In brief, RNA was extracted from collagenase D-treated splenocyte suspensions with Qiagen RNA and cDNA was generated with SuperScript First-Strand Synthesis System (Invitrogen). ECT was threshold cycle (CT) values for each gene were normalized to the housekeeping genes ubiquitin or β-actin using the formula Eq. 1.8(HSKGENE) (100,000), where HSK is the mean CT of triplicate housekeeping gene runs, GENE is the mean CT of duplicate runs of the gene of interest, and 100,000 is arbitrarily chosen as a factor to bring all values above 0.

Row | Substance | IC50 (TLR9) | IC90 (TLR9) | expression of IFN-regulated genes (TLR7 and TLR9)
1 | 5′-TGC TCC TGG AGI GGT TGT-3′ (DNA TGCTCCTGGAGNGGTTGT; DNA, [I] at 12, backbone and methylation of C not given here) [SEQ ID NO:73] | 25 nM | 99 nM | 
2 | 5′-TGCTCCTGGAGGGGTTGT-3′ (DNA, backbone not given here) [SEQ ID NO:42] |  |  | reduced the expression of IFN-regulated genes but not TNF-α
